Like-named read-outs stand apart in the source and are kept apart here. Starred links: 1 amine or outer side, 2 acyl side, 3 side chain; linkers in the order of their positions; H or OH if unused. Positions of bridges follow the written chain, without caps; N, C: chain ends. Non-standard residues stand in square brackets, D forms with d. Residues, ends and D or L forms follow the SMILES beside them. ξ: configuration not given here. *: point of attachment. X7 = COc1ccc(-c2[nH]c3ccccc3c2C[C@H](N[*:1])C(=O)[*:2])cc1; Bta = N[C@@H](Cc1csc2ccccc12)C(=O)O; cisHyp = O=C(O)[C@@H]1C[C@H](O)CN1; Hyp = O=C(O)[C@@H]1C[C@@H](O)CN1; NMeNle = CCCC[C@H](NC)C(=O)O; ξR = N=C(N)NCCCC(N)C(=O)O; NMeA = CN[C@@H](C)C(=O)O; Orn = NCCC[C@H](N)C(=O)O; 2Furoyl = O=C(c1ccco1)*; Dab = NCC[C@H](N)C(=O)O; Dap = NC[C@H](N)C(=O)O
Tests used:
Human PD-L1/PD-1 = molecular target: T1, Human PD-L1/PD-1 (Homo sapiens, UniProt Q9NZQ7); assay: HTRF PD-1-Ig/PD-L1-His binding assay (human PD-L1); conditions: cluster symbol; read-out: HTRF IC50 cluster
T1 construct: made in house; host or cells: HEK293T
Procedure, shortened: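 The time-resolved fluorescence signal comes from Eu-cryptate anti-Ig (1 nM) and APC anti-His (20 nM) antibodies bound to a PD-1-Ig/PD-L1-His complex. Both partners lack transmembrane regions.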

[1] = molecular target: T2, LK35.2-hPD-L1 cells / PE-labeled PD-1-Ig (Homo sapiens, UniProt Q9NZQ7); assay: LK35.2-hPD-L1 cell binding high-content screening assay; assay type: cell-based; conditions: cluster symbol, read-out: CBA IC50 cluster
T2 construct: expressed in transfected cells; host or cells: LK35.2 mouse B cell line
Procedure, shortened: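 Using overnight-cultured LK35.2-hPD-L1 mouse B cells, compound was co-incubated with phycoerythrin-tagged human PD-1-Ig (final 1 nM) at 37 °C for one hour. Unbound label was removed by triple dPBS washing prior to high-content image acquisition and analysis.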

[2] = cell binding assay, cell line not given
[3] = cell line of CBA not given (LK35.2-hPD-L1 or 293T-hPD-L1)

T2 sequence (Q9NZQ7 19-290): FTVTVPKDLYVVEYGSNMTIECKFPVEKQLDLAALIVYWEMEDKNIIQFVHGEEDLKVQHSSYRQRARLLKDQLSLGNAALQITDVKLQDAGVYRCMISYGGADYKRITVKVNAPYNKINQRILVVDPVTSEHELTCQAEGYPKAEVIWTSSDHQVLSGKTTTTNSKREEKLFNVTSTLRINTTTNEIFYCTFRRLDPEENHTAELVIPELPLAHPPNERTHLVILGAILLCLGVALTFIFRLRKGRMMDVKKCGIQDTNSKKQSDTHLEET
T1 sequence (Q9NZQ7 with tags, fused parts or gaps): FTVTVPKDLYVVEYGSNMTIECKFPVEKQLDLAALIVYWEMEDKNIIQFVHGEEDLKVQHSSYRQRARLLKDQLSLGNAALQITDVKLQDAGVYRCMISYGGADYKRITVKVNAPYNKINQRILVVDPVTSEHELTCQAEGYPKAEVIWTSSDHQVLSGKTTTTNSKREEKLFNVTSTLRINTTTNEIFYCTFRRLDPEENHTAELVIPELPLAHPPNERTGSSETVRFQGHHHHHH

IC50 (Human PD-L1/PD-1) | IC50 [1, 2] | IC50 [1, 3] | SMILES
0.385 to 6.74 nM | 0.158 to 4.71 nM | – | CCCC[C@H]1C(=O)N(C)[C@@H](CCCC)C(=O)NC(CCCNC(=N)N)C(=O)N[C@H](C(=O)NCC(N)=O)CSCC(=O)N[C@@H](Cc2ccc(O)cc2)C(=O)N(C)[C@@H](C)C(=O)N[C@@H](CC(N)=O)C(=O)N2CCC[C@H]2C(=O)N[C@@H](CN)C(=O)N[C@@H](CC(C)C)C(=O)N2CCC[C@H]2C(=O)N[C@@H](Cc2c[nH]c3ccccc23)C(=O)N[C@@H](CO)C(=O)N[C@@H](Cc2c(-c3ccc(OC)cc3)[nH]c3ccccc23)C(=O)N1C (stereo partly drawn) [Example 7008] ({CH2CO}-Y[NMeA]NP[Dap]LPWS[X7][NMeNle][NMeNle][ξR]CG-NH2; thioether N-14)
6.76 to 30.3 nM | – | > 74.3 nM | CCCC[C@H]1C(=O)N(C)[C@@H](CCCC)C(=O)N[C@@H](CCCNC(=N)N)C(=O)N[C@H](C(=O)NCC(N)=O)CSCC(=O)N[C@@H](Cc2ccc(O)cc2)C(=O)N(C)[C@@H](C)C(=O)N[C@@H](CCCN)C(=O)N2CCC[C@H]2C(=O)N[C@@H](C)C(=O)N[C@@H](CC(C)C)C(=O)N2C[C@@H](O)C[C@H]2C(=O)N[C@@H](Cc2c[nH]c3ccccc23)C(=O)N[C@@H](CO)C(=O)N[C@@H](Cc2c[nH]c3ccccc23)C(=O)N1C [Example 1146] ({CH2CO}-Y[NMeA][Orn]PAL[cisHyp]WSW[NMeNle][NMeNle]RCG-NH2; thioether N-14)
6.76 to 30.3 nM | 0.158 to 4.71 nM | – | CCCC[C@H]1C(=O)N(C)[C@@H](CCCC)C(=O)N[C@@H](CCN)C(=O)N[C@H](C(=O)NCC(N)=O)CSCC(=O)N[C@@H](Cc2ccc(O)cc2)C(=O)N(C)[C@@H](C)C(=O)N[C@@H](CC(N)=O)C(=O)N2CCC[C@H]2C(=O)N[C@@H](Cc2cnc[nH]2)C(=O)N[C@@H](CCC(N)=O)C(=O)N2C[C@H](O)C[C@H]2C(=O)N[C@@H](Cc2c[nH]c3ccccc23)C(=O)N[C@@H](CO)C(=O)N[C@@H](Cc2c[nH]c3ccccc23)C(=O)N1C [Example 5041] ({CH2CO}-Y[NMeA]NPHQ[Hyp]WSW[NMeNle][NMeNle][Dab]CG-NH2; thioether N-14)
6.76 to 30.3 nM | – | 4.78 to 72.9 nM | CCCC[C@H]1C(=O)N(C)[C@@H](CCCC)C(=O)N[C@@H](CCCN)C(=O)N[C@H](C(=O)NCC(N)=O)CSCC(=O)N[C@@H](Cc2ccc(O)cc2)C(=O)N2CCC[C@H]2C(=O)N[C@@H](CC(=O)O)C(=O)N2CCC[C@H]2C(=O)N[C@@H](CN)C(=O)N[C@@H](CCC(N)=O)C(=O)N2C[C@H](O)C[C@H]2C(=O)N[C@@H](Cc2c[nH]c3ccccc23)C(=O)N[C@@H](CCN)C(=O)N[C@@H](Cc2csc3ccccc23)C(=O)N1C [Example 1187] ({CH2CO}-YPDP[Dap]Q[Hyp]W[Dab][Bta][NMeNle][NMeNle][Orn]CG-NH2; thioether N-14)
0.385 to 6.74 nM | 0.158 to 4.71 nM | – | CCCC[C@H]1C(=O)N(C)[C@@H](CCCC)C(=O)N[C@@H](CN)C(=O)N[C@H](C(=O)NCC(N)=O)CSCC(=O)N[C@@H](Cc2ccc(O)cc2)C(=O)N(C)[C@@H](C)C(=O)N[C@@H](CC(N)=O)C(=O)N2CCC[C@H]2C(=O)N[C@@H](Cc2c[nH]cn2)C(=O)N[C@@H](CCC(=O)O)C(=O)N2C[C@H](O)C[C@H]2C(=O)N[C@@H](Cc2c[nH]c3ccccc23)C(=O)N[C@@H](CCN)C(=O)N[C@@H](Cc2c[nH]c3ccccc23)C(=O)N1C [Example 5064] ({CH2CO}-Y[NMeA]NPHE[Hyp]W[Dab]W[NMeNle][NMeNle][Dap]CG-NH2; thioether N-14)
> 30.5 nM | – | > 74.3 nM | CCCC[C@H]1C(=O)N(C)[C@@H](CCCC)C(=O)N[C@@H](CCCNC(=N)N)C(=O)N[C@H](C(=O)NCC(N)=O)CSCC(=O)N[C@@H](Cc2ccccc2)C(=O)N(C)[C@@H](C)C(=O)N[C@@H](CC(N)=O)C(=O)N2CCC[C@H]2C(=O)N[C@@H](Cc2c[nH]cn2)C(=O)N[C@@H](CC(C)C)C(=O)N[C@@H](CCNC(=O)c2ccco2)C(=O)N[C@@H](Cc2c[nH]c3ccccc23)C(=O)N[C@@H](CO)C(=O)N[C@@H](Cc2c[nH]c3ccccc23)C(=O)N1C [Example 1023] ({CH2CO}-F[NMeA]NPHL[Dab](2Furoyl)WSW[NMeNle][NMeNle]RCG-NH2; thioether N-14)

Reference: US9850283B2, “Macrocyclic inhibitors of the PD-1/PD-L1 and CD80(B7-1)/PD-L1 protein/protein interactions” (BRISTOL-MYERS SQUIBB COMPANY, priority 2013, dated 2017)
